According to ChEMBL document CHEMBL4507291 (2021):

Assays:
[1] = molecular target: Glutamate receptor ionotropic, kainate (Rattus norvegicus) (UniProt P22756+Q01812+P42260+P42264+Q63273); experiment: Inhibition of Glutamate, Kainate at 10 µM in the Eurofins-Panlabs radioligand binding assay (Eurofins_assay_232700); conditions: Compound concentration 10.0 uM
[2] = molecular target: Neuropeptide Y receptor type 1 (Homo sapiens) (UniProt P25929); experiment: Inhibition of Neuropeptide Y Y1 at 10 µM in the Eurofins-Panlabs radioligand binding assay (Eurofins_assay_257010); conditions: Compound concentration 10.0 uM
Sequence of Neuropeptide Y receptor type 1 (Homo sapiens) (P25929 whole entry): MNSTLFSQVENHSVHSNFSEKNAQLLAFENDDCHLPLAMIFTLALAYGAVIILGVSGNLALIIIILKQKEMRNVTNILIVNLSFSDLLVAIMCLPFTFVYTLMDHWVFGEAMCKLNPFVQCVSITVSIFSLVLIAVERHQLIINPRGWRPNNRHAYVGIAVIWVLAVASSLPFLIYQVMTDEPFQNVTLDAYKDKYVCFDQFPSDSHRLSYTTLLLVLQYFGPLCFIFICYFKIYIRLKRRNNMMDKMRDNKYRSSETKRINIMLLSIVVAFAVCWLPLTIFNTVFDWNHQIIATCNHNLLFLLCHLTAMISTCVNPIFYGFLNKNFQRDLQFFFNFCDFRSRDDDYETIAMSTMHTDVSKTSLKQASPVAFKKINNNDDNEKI

[3] = molecular target: Prostaglandin G/H synthase 1 (Homo sapiens) (UniProt P23219); experiment: Inhibition of Cyclooxygenase COX-1 at compound concentration of 10.0 uM in the Eurofins-Panlabs enzyme assay (Eurofins_assay_116020); conditions: Compound concentration 10.0 uM
Sequence of Prostaglandin G/H synthase 1 (Homo sapiens) (P23219 whole entry): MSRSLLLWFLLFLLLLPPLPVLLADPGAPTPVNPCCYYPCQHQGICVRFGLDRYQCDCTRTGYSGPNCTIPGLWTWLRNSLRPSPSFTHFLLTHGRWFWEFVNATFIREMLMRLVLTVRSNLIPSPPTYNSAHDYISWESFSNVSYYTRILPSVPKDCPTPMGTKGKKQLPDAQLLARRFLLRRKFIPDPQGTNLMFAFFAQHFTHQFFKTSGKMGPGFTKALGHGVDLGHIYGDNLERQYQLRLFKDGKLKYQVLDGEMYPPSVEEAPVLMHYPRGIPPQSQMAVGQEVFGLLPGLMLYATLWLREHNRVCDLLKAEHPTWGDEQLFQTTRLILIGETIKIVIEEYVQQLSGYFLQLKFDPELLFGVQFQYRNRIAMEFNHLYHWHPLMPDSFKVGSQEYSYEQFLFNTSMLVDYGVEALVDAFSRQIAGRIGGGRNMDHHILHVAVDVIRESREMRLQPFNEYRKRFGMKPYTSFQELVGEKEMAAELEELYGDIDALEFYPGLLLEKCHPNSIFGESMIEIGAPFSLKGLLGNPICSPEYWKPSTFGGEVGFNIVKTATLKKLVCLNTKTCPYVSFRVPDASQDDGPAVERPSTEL

[4] = molecular target: T1, Serine/threonine-protein kinase BRSK1 (Homo sapiens) (UniProt Q8TDC3); experiment: BRSK1 (SAD1) Kinase screen; conditions: Compound concentration 1.0 uM
T1 sequence (whole entry): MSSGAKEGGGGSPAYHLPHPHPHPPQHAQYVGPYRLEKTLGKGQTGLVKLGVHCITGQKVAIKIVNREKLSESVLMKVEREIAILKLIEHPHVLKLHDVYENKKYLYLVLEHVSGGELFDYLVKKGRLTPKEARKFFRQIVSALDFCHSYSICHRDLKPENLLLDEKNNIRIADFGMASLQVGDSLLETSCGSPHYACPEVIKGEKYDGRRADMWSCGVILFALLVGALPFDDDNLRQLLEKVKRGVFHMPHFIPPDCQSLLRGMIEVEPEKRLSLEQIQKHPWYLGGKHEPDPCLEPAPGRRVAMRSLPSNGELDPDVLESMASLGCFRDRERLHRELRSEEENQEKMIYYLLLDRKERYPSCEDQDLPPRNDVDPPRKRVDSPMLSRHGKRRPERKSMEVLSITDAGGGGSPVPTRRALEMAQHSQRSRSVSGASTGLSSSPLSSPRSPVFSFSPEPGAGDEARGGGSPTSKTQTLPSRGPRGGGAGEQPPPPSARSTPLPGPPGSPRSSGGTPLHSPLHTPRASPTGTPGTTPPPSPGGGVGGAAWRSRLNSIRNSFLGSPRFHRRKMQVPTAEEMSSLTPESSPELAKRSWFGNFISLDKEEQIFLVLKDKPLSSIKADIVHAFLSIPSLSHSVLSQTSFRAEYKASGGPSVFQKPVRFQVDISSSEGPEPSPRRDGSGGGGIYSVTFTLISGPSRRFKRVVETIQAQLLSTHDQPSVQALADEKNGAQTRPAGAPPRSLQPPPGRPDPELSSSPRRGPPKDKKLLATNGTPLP

[5] = molecular target: Calcium/calmodulin-dependent protein kinase type 1D (Homo sapiens) (UniProt Q8IU85); experiment: CAMK1D (CaMKI delta) Kinase screen; conditions: Compound concentration 1.0 uM
Sequence of Calcium/calmodulin-dependent protein kinase type 1D (Homo sapiens) (Q8IU85 whole entry, looked up): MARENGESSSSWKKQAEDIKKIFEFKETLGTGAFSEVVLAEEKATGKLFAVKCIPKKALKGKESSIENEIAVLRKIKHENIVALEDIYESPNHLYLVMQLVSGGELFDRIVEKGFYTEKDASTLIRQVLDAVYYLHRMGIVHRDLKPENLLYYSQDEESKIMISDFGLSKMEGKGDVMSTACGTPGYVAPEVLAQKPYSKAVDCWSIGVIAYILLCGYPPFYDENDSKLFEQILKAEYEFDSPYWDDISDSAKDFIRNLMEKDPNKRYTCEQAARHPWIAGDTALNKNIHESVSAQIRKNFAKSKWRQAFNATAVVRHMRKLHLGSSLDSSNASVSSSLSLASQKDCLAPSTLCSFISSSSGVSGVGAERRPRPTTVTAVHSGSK

[6] = molecular target: Macrophage colony-stimulating factor 1 receptor (Homo sapiens) (UniProt P07333); experiment: CSF1R (FMS) Kinase screen; conditions: Compound concentration 1.0 uM
Sequence of Macrophage colony-stimulating factor 1 receptor (Homo sapiens) (P07333 whole entry): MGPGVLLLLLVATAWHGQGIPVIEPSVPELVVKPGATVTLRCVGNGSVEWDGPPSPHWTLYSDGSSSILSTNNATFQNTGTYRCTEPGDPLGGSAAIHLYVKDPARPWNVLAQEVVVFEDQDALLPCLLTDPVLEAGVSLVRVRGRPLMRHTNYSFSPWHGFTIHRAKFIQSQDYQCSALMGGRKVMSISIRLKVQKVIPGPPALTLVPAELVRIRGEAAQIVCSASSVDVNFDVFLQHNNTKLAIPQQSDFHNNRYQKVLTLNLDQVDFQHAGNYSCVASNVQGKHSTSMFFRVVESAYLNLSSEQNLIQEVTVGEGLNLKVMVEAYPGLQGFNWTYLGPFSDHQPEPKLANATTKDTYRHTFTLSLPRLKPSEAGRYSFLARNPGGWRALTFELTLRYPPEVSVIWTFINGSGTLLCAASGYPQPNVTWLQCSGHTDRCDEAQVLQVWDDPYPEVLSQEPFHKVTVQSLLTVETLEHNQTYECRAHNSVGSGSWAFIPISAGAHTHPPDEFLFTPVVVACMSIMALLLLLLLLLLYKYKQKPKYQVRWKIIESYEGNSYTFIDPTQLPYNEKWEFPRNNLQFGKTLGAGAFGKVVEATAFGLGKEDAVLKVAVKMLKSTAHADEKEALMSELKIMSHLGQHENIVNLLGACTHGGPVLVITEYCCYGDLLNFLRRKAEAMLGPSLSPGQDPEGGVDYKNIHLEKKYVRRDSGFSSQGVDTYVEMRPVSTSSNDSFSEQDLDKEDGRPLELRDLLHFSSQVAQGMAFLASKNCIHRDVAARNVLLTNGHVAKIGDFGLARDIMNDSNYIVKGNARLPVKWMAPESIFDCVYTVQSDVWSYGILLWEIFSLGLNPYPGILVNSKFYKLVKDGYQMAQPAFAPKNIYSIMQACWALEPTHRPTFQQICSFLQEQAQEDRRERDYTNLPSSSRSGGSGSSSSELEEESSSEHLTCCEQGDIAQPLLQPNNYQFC

[7] = molecular target: T2, Muscle, skeletal receptor tyrosine-protein kinase (Homo sapiens) (UniProt O15146); experiment: MUSK Kinase screen; conditions: Compound concentration 1.0 uM
T2 sequence (whole entry): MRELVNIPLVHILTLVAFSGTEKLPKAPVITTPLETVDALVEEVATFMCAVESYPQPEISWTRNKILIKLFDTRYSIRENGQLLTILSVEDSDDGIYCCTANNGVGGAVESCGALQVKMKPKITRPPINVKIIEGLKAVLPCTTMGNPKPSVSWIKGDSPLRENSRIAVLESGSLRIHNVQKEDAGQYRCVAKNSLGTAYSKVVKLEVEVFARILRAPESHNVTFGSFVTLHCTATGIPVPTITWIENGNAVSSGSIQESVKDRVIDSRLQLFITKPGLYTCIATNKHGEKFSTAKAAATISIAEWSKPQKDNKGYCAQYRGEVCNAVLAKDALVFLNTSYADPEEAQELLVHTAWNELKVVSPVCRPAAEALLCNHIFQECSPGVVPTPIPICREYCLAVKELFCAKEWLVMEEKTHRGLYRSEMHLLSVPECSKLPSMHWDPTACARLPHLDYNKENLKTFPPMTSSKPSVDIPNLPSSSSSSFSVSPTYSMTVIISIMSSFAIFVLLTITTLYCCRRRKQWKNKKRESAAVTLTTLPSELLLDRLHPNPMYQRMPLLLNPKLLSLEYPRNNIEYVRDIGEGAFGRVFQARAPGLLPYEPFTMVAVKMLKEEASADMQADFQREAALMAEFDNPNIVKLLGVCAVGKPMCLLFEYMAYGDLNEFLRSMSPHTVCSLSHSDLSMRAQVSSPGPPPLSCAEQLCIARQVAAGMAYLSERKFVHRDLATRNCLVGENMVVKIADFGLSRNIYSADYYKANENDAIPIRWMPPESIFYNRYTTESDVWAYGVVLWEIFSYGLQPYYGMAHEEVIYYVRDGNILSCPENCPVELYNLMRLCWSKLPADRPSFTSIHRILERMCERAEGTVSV

[8] = molecular target: PI3-kinase p110-delta/p85-alpha (Homo sapiens) (UniProt P27986+O00329); experiment: PIK3CD/PIK3R1 (p110 delta/p85 alpha) Kinase screen; type: protein-complex assay; conditions: Compound concentration 1.0 uM
[9] = molecular target: Focal adhesion kinase 1 (Homo sapiens) (UniProt Q05397); experiment: PTK2 (FAK) Kinase screen; conditions: Compound concentration 1.0 uM
Sequence of Focal adhesion kinase 1 (Homo sapiens) (Q05397 2-1052 limits assumed): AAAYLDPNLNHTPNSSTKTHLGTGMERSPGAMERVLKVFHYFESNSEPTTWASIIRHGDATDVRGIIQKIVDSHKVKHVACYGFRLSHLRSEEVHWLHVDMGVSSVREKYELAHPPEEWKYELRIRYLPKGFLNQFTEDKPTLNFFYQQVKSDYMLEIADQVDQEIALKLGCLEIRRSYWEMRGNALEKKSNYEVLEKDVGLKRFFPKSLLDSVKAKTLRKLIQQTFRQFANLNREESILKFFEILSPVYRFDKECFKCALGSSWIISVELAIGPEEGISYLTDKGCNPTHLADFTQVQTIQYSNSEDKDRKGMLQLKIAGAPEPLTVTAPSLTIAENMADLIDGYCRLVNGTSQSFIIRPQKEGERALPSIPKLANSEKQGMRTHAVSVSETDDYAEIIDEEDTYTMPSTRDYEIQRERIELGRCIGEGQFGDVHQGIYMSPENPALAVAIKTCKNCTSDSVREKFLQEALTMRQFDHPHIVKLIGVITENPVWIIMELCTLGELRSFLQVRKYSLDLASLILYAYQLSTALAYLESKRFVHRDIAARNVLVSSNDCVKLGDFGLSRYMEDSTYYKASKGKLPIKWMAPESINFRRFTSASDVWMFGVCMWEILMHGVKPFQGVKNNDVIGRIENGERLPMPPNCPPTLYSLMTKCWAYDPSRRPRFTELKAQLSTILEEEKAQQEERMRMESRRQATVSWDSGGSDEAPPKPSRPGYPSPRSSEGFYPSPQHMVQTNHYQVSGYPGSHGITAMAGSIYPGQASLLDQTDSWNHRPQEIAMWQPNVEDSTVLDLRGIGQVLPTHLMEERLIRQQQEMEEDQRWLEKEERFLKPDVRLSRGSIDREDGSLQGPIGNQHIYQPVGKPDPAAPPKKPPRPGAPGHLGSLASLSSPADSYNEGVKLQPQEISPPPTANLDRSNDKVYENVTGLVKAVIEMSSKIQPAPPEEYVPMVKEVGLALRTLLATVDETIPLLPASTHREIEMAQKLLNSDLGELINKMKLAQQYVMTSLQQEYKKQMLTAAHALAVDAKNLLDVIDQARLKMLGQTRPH

[10] = test system: Proto-oncogene tyrosine-protein kinase receptor Ret (Homo sapiens), P07949 [Y791F]; experiment: RET Y791F Kinase screen; conditions: Compound concentration 1.0 uM
[11] = molecular target: Ribosomal protein S6 kinase alpha-6 (Homo sapiens) (UniProt Q9UK32); experiment: RPS6KA6 (RSK4) Kinase screen; conditions: Compound concentration 1.0 uM
Sequence of Ribosomal protein S6 kinase alpha-6 (Homo sapiens) (Q9UK32 whole entry): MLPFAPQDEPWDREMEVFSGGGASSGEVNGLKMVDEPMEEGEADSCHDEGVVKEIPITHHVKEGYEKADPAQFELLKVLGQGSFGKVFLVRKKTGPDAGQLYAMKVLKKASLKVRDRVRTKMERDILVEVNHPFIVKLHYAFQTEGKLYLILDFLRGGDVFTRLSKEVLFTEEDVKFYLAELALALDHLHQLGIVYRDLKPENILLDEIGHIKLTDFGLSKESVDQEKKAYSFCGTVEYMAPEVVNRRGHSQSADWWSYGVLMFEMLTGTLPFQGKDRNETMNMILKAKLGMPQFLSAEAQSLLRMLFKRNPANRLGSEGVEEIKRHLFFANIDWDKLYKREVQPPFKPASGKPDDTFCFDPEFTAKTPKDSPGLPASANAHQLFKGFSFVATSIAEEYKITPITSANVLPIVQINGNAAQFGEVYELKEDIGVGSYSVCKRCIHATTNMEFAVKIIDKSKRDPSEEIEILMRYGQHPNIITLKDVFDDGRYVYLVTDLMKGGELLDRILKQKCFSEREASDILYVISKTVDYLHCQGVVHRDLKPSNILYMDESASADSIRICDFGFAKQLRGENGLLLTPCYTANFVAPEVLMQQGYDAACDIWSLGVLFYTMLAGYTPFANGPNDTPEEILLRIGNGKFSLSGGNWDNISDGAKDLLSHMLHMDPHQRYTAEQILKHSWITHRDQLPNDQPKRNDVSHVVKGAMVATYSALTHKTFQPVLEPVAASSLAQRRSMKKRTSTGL

[12] = molecular target: Wee1-like protein kinase (Homo sapiens) (UniProt P30291); experiment: WEE1 Kinase screen; conditions: Compound concentration 1.0 uM
Sequence of Wee1-like protein kinase (Homo sapiens) (P30291 whole entry, looked up): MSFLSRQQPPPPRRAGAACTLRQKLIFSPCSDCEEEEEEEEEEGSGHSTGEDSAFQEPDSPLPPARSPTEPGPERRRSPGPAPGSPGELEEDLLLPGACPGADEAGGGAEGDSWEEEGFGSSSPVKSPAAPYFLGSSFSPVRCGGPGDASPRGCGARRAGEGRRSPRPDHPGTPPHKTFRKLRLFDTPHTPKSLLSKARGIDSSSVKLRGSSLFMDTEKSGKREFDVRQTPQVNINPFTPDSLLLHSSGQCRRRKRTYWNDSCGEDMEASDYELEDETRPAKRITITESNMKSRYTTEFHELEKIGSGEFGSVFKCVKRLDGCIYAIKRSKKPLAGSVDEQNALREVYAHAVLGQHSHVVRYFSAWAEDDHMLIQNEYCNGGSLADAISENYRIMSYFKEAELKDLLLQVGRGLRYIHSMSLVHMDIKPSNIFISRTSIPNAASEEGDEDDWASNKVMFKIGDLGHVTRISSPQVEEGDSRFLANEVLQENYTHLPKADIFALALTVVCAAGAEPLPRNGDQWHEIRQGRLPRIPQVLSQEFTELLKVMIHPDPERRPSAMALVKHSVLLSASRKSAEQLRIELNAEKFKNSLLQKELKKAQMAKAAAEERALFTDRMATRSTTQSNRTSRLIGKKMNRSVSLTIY

[13] = molecular target: Prostaglandin E2 receptor EP3 subtype (Homo sapiens) (UniProt P43115); experiment: Prostanoid EP3 Eurofins-Panlabs radioligand binding assay; parameters: ligand concentration 0.5 nM, non-specific ligand with concentration 10 µM Prostaglandin EŽ2 (PGE2), incubation time 60 min, incubation temperature 25 °C; conditions: Compound concentration 10.0 uM
[14] = molecular target: Adenosine receptor A2a (Homo sapiens) (UniProt P29274); conditions: Compound concentration 10.0 uM
[15] = molecular target: T3, Muscarinic acetylcholine receptor M4 (Homo sapiens) (UniProt P08173); conditions: Compound concentration 10.0 uM
T3 sequence (whole entry): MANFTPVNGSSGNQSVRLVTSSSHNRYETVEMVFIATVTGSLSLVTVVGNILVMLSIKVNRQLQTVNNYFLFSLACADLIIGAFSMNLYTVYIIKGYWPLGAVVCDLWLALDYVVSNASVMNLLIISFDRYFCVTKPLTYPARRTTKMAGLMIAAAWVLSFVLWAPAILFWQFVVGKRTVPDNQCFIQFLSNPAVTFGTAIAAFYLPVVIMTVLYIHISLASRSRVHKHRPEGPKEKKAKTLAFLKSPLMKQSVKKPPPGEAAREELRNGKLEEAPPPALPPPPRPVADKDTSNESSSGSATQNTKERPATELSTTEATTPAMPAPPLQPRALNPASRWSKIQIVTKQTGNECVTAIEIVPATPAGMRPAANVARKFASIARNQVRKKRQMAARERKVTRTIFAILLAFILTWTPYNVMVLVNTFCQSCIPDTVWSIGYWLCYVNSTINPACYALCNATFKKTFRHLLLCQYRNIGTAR

Measured: inhibition

C[C@@H]1CN(c2cc(-c3n[nH]c4ccc(OC5(C)CC5)cc34)ncn2)C[C@H](C)O1 [MLi-2]
inactive: [1] 12% | [2] 0% | [3] 9% | [4] 4.76% | [5] 17.4% | [6] 6.91% | [7] -0.0337% | [8] 2.08% | [9] 14.2% | [10] 5.35% | [11] 3.23% | [12] 3% | [13] -4% | [14] 1% | [15] 26%
